In US12109204B2, “Methods for treating muscular dystrophies” (The Regents of the University of California, priority 2018, dated 2024):

Tests used:
Format in all cases: cell-based, murine
C2C12 wild-type myotubes = assay: Fusion index and myotube morphology in wild-type myotubes
SSPN protein [1] = assay: SSPN protein immunoblot in C2C12 wild-type myotubes; conditions: C2C12 cells, 1 μM-10 μM, 48 hours, immunoblot normalized to GAPDH (FIG. 10e)
Procedure: Cells were treated for 48 hours beginning at day 2 of differentiation with DMSO (vehicle control, ATCC), felodipine (Sigma), nilvadipine (Sigma), alloxazine (Sigma), GW5074 (Sigma), methylthioadenosine (Santa Cruz Biotechnology), or ezutromid (Cayman Chemicals) diluted in cell type specific differentiation media at doses listed in the figures. For gene expression studies, each treatment was performed in duplicate. For protein studies, each treatment was performed with single or double replicates. C2C12 murine myotubes treated for 48 hours were lysed using RIPA buffer (Thermo Fisher Scientific) containing a protease inhibitor cocktail (0.6 μg/ml pepstatin A, 0.5 μg/ml aprotinin, 0.5 μg/ml leupeptin, 0.1 mM PMSF, 0.75 mM benzamidine, 5 μM calpain I inhibitor, 5 μM calpeptin). […] The supernatant was collected, quantified for protein concentration using the DC protein assay (Bio-Rad), and normalized to 2 mg/ml in water and Laemmli sample buffer with a final concentration of 10% glycerol (Sigma-Aldrich), 5% beta-mercaptoethanol (Sigma-Aldrich), 3% sodium dodecyl sulfate (Sigma-Aldrich), and 0.05% bromophenol blue (Sigma-Aldrich). […] Autoradiography films were developed using a SRX-101A tabletop processor (Konica Minolta), scanned to a digital file, and analyzed by densitometry of bands using ImageJ version 1.51s. […]

SSPN protein [2] = assay: SSPN protein immunoblot in mdx myotubes; conditions: mdx cells, 48 hours, immunoblot normalized to GAPDH (FIG. 10f)
Procedure: C2C12 cells (American Type Culture Collection) were grown at 37° C. with 5% CO2 in growth media containing DMEM (Gibco) with 20% FBS (Sigma-Aldrich). Upon reaching confluency, the media was replaced with differentiation media containing DMEM with 2% horse serum (Sigma-Aldrich). Conditionally immortalized H2K mdx myoblast cells with a nonsense mutation in exon 23 of dystrophin were a gift from Terrance Partridge, Ph.D. (Children's National Medical Center, Washington, D.C.). Cells were allowed to proliferate on 0.01% gelatin (Sigma-Aldrich) coated plates at 33° C. with 5% CO2 with growth media containing DMEM, 20% HI-FBS (Invitrogen), 2% L-glutamine (Sigma-Aldrich), 2% chicken embryo extract (Accurate Chemical), 1% penicillin-streptomycin (Sigma-Aldrich), and 20U/ml of fresh interferon gamma (Gibco). […] The supernatant was collected, quantified for protein concentration using the DC protein assay (Bio-Rad), and normalized to 2 mg/ml in water and Laemmli sample buffer with a final concentration of 10% glycerol (Sigma-Aldrich), 5% beta-mercaptoethanol (Sigma-Aldrich), 3% sodium dodecyl sulfate (Sigma-Aldrich), and 0.05% bromophenol blue (Sigma-Aldrich). […] Autoradiography films were developed using a SRX-101A tabletop processor (Konica Minolta), scanned to a digital file, and analyzed by densitometry of bands using ImageJ version 1.51s. […]

## CCOC(=O)C1=C(C)NC(C)=C(C(=O)OC)C1c1cccc(Cl)c1Cl (stereo not drawn) [Felodipine, 5-O-ethyl 3-O-methyl 4-(2,3-dichlorophenyl)-2,6-dimethyl-1,4-dihydropyridine-3,5-dicarboxylate]
C2C12 wild-type myotubes; wild-type myotubes (FIG. 12c-d)
  fusion index (nuclei in myosin heavy chain positive area/total nuclei in field): does not increase fusion index
C2C12 wild-type myotubes; wild-type myotubes (FIG. 12e-f)
  formation of hypertrophic myotubes: does induce the formation of hypertrophic wild-type myotubes
SSPN protein [1]
  SSPN protein levels: increases sarcospan protein levels
SSPN protein [1]; listed as felodipine
  SSPN protein levels: increase in SSPN protein levels
SSPN protein [2]
  SSPN protein levels: increases sarcospan protein levels
SSPN protein [2]; listed as felodipine
  SSPN protein levels: increased SSPN protein levels
